“And” between values parts separate entries of the source, which are not always exact repeats. Equal entries are not always repeated. Where two headings read alike, the source gives them in different places.
Target: Mtb NDH-2 (Mycobacterium tuberculosis, UniProt P95160)
Assay type: biochemical

Chain of Mtb NDH-2 (P95160 whole entry): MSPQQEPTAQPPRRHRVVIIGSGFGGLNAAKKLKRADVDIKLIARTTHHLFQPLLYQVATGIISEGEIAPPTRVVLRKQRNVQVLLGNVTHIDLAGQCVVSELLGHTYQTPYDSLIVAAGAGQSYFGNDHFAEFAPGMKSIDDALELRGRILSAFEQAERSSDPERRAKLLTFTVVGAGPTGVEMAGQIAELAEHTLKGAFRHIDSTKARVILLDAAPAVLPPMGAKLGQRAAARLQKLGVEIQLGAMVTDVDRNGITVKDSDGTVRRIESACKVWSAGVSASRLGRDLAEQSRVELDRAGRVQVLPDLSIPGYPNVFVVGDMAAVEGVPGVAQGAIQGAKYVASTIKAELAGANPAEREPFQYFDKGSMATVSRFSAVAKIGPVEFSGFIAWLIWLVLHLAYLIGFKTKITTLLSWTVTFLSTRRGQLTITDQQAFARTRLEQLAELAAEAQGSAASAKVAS

NC(=O)C1=CN([C@@H]2O[C@H](COP(=O)(O)OP(=O)(O)OC[C@H]3O[C@@H](n4cnc5c(N)ncnc54)[C@H](O)[C@@H]3O)[C@@H](O)[C@H]2O)C=CC1 [NADH, nicotinamide adenine dinucleotide, reduced form]
Km (read-out: KM for NADH (average), membrane-bound NDH-2 with UQ0, average): 280 µM | Km (read-out: KM^NADH): 240 µM and 320 µM

COC1=C(OC)C(=O)C(C)=CC1=O [UQ0]
kcat: 570.0 ± 200 s^–1 | kcat ([…], NADH oxidation with the quinone as electron acceptor, [NADH] varied): 580.0 ± 170 s^–1 | kcat ([…], ratio plot, [UQ0] = 6.25[NADH]): 330 ± 15 s^–1 | Vmax (membrane-bound NDH-2, both with and without UQ1H2): 0.12 ± 0.01 A340 min^–1 nM^–1 | Km (read-out: apparent KM value for UQ0, membrane-bound NDH-2, absence of UQ1H2 (Figure 6C)): 350 ± 7 µM

COc1c(O)c(C)c(CC=C(C)C)c(O)c1OC [UQ1H2]
inhibition (1.0 mM UQ1H2, 0.05 mM UQ1 as electron acceptor, membrane-bound NDH-2): 30 ± 10% | increase in activity (UQ0 as electron acceptor, membrane-bound NDH-2): up to 5 fold
